Assays:
[1] = test system: LNCaP prostate tumor cells; experiment: LNCaP human prostate cancer model in testosterone-supplemented male nude mice; type: in vivo; settings: compared to control and castration
Description: Male nude mice (M&B) were supplemented with testosterone pellets (Innovative Research of America). LNCaP prostate cancer cells (obtainable from ATCC), obtained from cell culture and suspended in matrigel, were implanted s.c. in the inguinal region of the mice. Treatment was started when the tumors were approximately 25 mm^2 in size. Treatment was continued until progression of the tumors, Experimental groups were: 1) control (vehicle), 2) castration, 3) the antiandrogen casodex, 30 mg/kg s.c., 4) the antiprogestin mifepristone (RU-486), 10 mg/kg sec., and 5) 11β-(4-acetylphenyl)-17β-hydroxy-17α-(1,1,2,2,2-pentafluoroethyl)-estra-4,9-dien-3-one (antiprogestin (I)), 10 mg/kg sc., 5 times weekly. The tumor area was determined by caliper measurements. The Kruskal Wallis test was used for statistical analysis of intergroup differences of mean values. The tumor weight was determined at the end of the experiment.

[2] = test system: R3327H; settings: administered alone; R3327H prostate cancer model; cited from earlier work
[3] = test system: androgen-independent prostate cancer cells; settings: in vitro and in vivo; cited from earlier work

| SMILES | tumor growth inhibition (tumor area by caliper) ([1]; 30 mg/kg s.c.) | tumor growth inhibition (tumor area by caliper) ([1]; 10 mg/kg s.c., 5 times weekly) | inhibition of tumor growth [2] | effect on apoptosis [3] |
| --- | --- | --- | --- | --- |
| CC(O)(CS(=O)(=O)c1ccc(F)cc1)C(=O)Nc1ccc(C#N)c(C(F)(F)F)c1 (centres unmarked) [casodex] | totally ineffective |  |  |  |
| CC#C[C@]1(O)CC[C@H]2[C@@H]3CCC4=CC(=O)CCC4=C3[C@@H](c3ccc(N(C)C)cc3)C[C@@]21C [mifepristone] |  | totally ineffective | substantial inhibition of tumor growth | effective inhibitors of apoptosis |
| CC/C(=C(\c1ccccc1)c1ccc(OCCN(C)C)cc1)c1ccccc1 [tamoxifen] |  |  |  | effective inhibitors of apoptosis |
